Assay results as given in ChEMBL document CHEMBL1268889, “Structural characteristics of thiosemicarbazones as inhibitors of melanogenesis” (Bioorg Med Chem Lett, 2010).

Columns and labels:
B16 [1] = assay: Inhibition of melanogenesis in mouse B16 cells; assay type: functional, cell-based
B16 [2] = assay: Inhibition of melanogenesis in mouse B16 cells at 10 uM; assay type: functional

Row | Compound | IC50 (B16 [1]) [µM] | inhibition at 10 µM (B16 [2]) [%]
1 | Cc1cccc(/C=N/NC(N)=S)c1 | 2.8 | > 100
2 | Cc1ccc(/C=N/NC(N)=S)cc1 | – | 64
3 | CCc1ccc(/C=N/NC(N)=S)cc1 | – | > 100
4 | NC(=S)N/N=C/c1ccccc1Cl | 1.4 | > 100
5 | NC(=S)N/N=C\c1cccc2ccccc12 | 1.1 | > 100
6 | NC(=S)N/N=C/c1ccc(Cl)cc1 | 4.2 | 92
7 | COc1cccc(/C=N/NC(N)=S)c1 | 15.4 | 40
8 | N/C(S)=N/N=C/c1ccccn1 | > 30 | 15
9 | NC(=S)N/N=C/c1ccccc1 [PHENYLTHIOSEMICARBAZONE] | > 10 | < 10
10 | NC(=S)N/N=C/c1cccc(Cl)c1 | 2.4 | > 100
11 | NC(=S)N/N=C/C1CCCCC1 | 3.4 | 81
12 | Cc1ccccc1/C=N/NC(N)=S | 3.4 | > 100
13 | NC(=S)N/N=C/c1ccccc1O | 21 | 24
14 | COc1ccc(/C=N/NC(N)=S)cc1 | 15.1 | 42
15 | CCc1ccccc1/C=N/NC(N)=S | 2.7 | > 100
